Experimental data: patent US8309558B2, “Compounds for the treatment of hepatitis C” (Bristol-Myers Squibb Company, priority 2008, dated 2012)

What was measured:
[1] = target: T1, HCV NS5B RdRp genotype 1b (Hepatitis C virus genotype 1b, UniProt Q9WMX2); assay: Standard HCV NS5B RdRp enzyme assay; type: biochemical; details: Table 1a; HCV NS5B RdRp genotype 1b; read-out: IC50
T1 construct: The protein was expressed with an 18 amino acid C-terminal truncation to enhance the solubility; made in house; host or cells: E. coli BL21(DE3), pET21a vector
T1 sequence (Q9WMX2 2420-2992): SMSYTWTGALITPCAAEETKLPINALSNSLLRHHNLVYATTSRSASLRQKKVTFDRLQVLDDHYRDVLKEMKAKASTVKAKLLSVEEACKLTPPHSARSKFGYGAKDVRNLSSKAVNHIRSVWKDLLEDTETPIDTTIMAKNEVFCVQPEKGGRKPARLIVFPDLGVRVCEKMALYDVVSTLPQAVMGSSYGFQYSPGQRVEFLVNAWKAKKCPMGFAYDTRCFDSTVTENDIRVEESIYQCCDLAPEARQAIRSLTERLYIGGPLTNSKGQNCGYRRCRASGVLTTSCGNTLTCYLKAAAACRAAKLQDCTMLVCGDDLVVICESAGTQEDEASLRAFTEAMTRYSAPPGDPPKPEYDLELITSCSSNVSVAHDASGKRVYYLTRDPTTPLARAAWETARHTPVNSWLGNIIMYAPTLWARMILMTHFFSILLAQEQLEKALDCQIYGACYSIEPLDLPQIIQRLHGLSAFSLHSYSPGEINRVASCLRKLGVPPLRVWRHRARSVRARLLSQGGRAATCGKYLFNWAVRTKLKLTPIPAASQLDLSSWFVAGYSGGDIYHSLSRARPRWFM
Method in brief: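 Radiometric SPA measuring 3H-UMP incorporation on polyA/biotin-oligo-dT12 (6 nM/180 nM), 0.29 μM total UTP. Enzyme: NS5B 1b lacking last 18 residues, 28 nM final, 30° C for 60 min in 20 mM Hepes pH 7.5, 2.5 mM MgCl2, 2% DMSO. IC50 from seven-point curves.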

[2] = test system: HCV replicon cells; assay: HCV replicon FRET / luciferase assay (96-well plates); type: cell-based; details: Hepatitis C virus, Table 1a; HCV replicon; read-out: EC50
Method in brief: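 Percent activity is background-subtracted signal relative to untreated cell wells, with background taken from maximal protease-inhibitor wells. Cytotoxicity is Alamar blue fluorescence relative to controls. Replicon inhibition was read by NS3 FRET peptide cleavage (340/490 nm) or luciferase.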

Row | SMILES | IC50 [1] | EC50 [2]
1 | CCC(CC)NC(=O)c1cccc(-c2ccc3oc(-c4ccc(F)cc4)c(C(=O)NC)c3c2)c1 | < 0.25 µM | < 0.25 µM
2 | CCC(C)NC(=O)c1cccc(-c2ccc3oc(-c4ccc(F)cc4)c(C(=O)NC)c3c2)c1 (stereo not shown) | < 0.25 µM | < 0.25 µM
3 | CCCCCNC(=O)c1cccc(-c2ccc3oc(-c4ccc(F)cc4)c(C(=O)NC)c3c2)c1 | < 0.25 µM | < 0.25 µM
4 | CNC(=O)c1c(-c2ccc(F)cc2)oc2ccc(-c3cccc(C(=O)NCc4ccc(C)cc4)c3)cc12 | < 0.25 µM | < 0.25 µM
5 | CNC(=O)c1c(-c2ccc(F)cc2)oc2ccc(-c3cccc(C(=O)NCCC(C)C)c3)cc12 | 0.25 to 1 µM | < 0.25 µM
6 | CNC(=O)c1c(-c2ccc(F)cc2)oc2ccc(-c3cccc(C(=O)NC4CCCCC4)c3)cc12 | < 0.25 µM | < 0.25 µM
7 | CNC(=O)c1c(-c2ccc(F)cc2)oc2ccc(-c3ccc(C(=O)N(C)C4CCN(C)C4)cc3)cc12 (stereo not shown) | > 10 µM | 1 to 10 µM
8 | CNC(=O)c1c(-c2ccc(F)cc2)oc2ccc(-c3ccc(C(=O)NCCc4ccc(F)cc4)cc3)cc12 | > 10 µM | 1 to 10 µM
9 | CNC(=O)c1c(-c2ccc(F)cc2)oc2ccc(-c3ccc(C(=O)NCCO)cc3)cc12 | > 10 µM | 1 to 10 µM
10 | CNC(=O)c1c(-c2ccc(F)cc2)oc2ccc(-c3cccc(C(=O)Nc4ccon4)c3)cc12 | 0.25 to 1 µM | 1 to 10 µM
11 | CNC(=O)c1c(-c2ccc(F)cc2)oc2ccc(-c3cccc(C(=O)Nc4cc(C)no4)c3)cc12 | 1 to 10 µM | 1 to 10 µM
12 | CNC(=O)c1c(-c2ccc(F)cc2)oc2ccc(-c3ccc(Cl)c(C(=O)NCC(C)C)c3)cc12 | 1 to 10 µM | 1 to 10 µM
13 | CNC(=O)c1c(-c2ccc(F)cc2)oc2ccc(-c3cccc(C(=O)N[C@@H](C)C(=O)OC)c3)cc12 | < 0.25 µM | 1 to 10 µM
14 | CNC(=O)c1c(-c2ccc(F)cc2)oc2ccc(-c3cccc(C(=O)N[C@H](CO)Cc4c[nH]cn4)c3)cc12 | 1 to 10 µM | 1 to 10 µM
15 | CCOC(=O)[C@H](C)NC(=O)c1cccc(-c2ccc3oc(-c4ccc(F)cc4)c(C(=O)NC)c3c2)c1 | < 0.25 µM | 1 to 10 µM
16 | CNC(=O)c1c(-c2ccc(F)cc2)oc2ccc(-c3cccc(C(=O)N[C@@H](CO)c4ccccc4)c3)cc12 | 0.25 to 1 µM | 1 to 10 µM
17 | CNC(=O)c1c(-c2ccc(F)cc2)oc2ccc(-c3cccc(C(=O)NC(CO)C(=O)OC)c3)cc12 (stereo not shown) | 0.25 to 1 µM | 1 to 10 µM
18 | CNC(=O)c1c(-c2ccc(F)cc2)oc2ccc(-c3cccc(C(=O)Nc4ccc(O)nc4)c3)cc12 | 1 to 10 µM | 1 to 10 µM
19 | CNC(=O)c1c(-c2ccc(F)cc2)oc2ccc(-c3cccc(C(=O)N[C@H](C(N)=O)C(C)C)c3)cc12 | 0.25 to 1 µM | 1 to 10 µM

Row | SMILES | IC50 [1] | EC50 [2]
20 | CNC(=O)c1c(-c2ccc(F)cc2)oc2ccc(-c3cccc(C(=O)N[C@H](CO)C(=O)OC)c3)cc12 | 0.25 to 1 µM | 1 to 10 µM
21 | CCOC(=O)C(NC(=O)c1cccc(-c2ccc3oc(-c4ccc(F)cc4)c(C(=O)NC)c3c2)c1)C(C)C (stereo not shown) | 0.25 to 1 µM | 1 to 10 µM
22 | CNC(=O)c1c(-c2ccc(F)cc2)oc2ccc(-c3cccc(C(=O)N[C@@H](C)C(=O)NC)c3)cc12 | 0.25 to 1 µM | 1 to 10 µM
23 | CNC(=O)c1c(-c2ccc(F)cc2)oc2ccc(-c3cccc(C(=O)N[C@@H](CO)CC(C)C)c3)cc12 | 1 to 10 µM | 1 to 10 µM
24 | CNC(=O)c1c(-c2ccc(F)cc2)oc2ccc(-c3cccc(C(=O)N[C@@H](CO)C(C)(C)C)c3)cc12 | 1 to 10 µM | 1 to 10 µM
25 | CCCC(CCC)NC(=O)c1cccc(-c2ccc3oc(-c4ccc(F)cc4)c(C(=O)NC)c3c2)c1 | > 0.4 µM | 1 to 10 µM
26 | CNC(=O)c1c(-c2ccc(F)cc2)oc2ccc(-c3cccc(C(=O)NS(=O)(=O)C(C)(C)C)c3)cc12 | < 0.25 µM | 1 to 10 µM
27 | CNC(=O)c1c(-c2ccc(F)cc2)oc2ccc(-c3cccc(C(=O)NS(=O)(=O)c4ccccc4)c3)cc12 | < 0.25 µM | 1 to 10 µM
28 | CNC(=O)c1c(-c2ccc(F)cc2)oc2ccc(-c3cccc(C(=O)N(C)S(=O)(=O)c4ccccc4)c3)cc12 | > 1.39 µM | 1 to 10 µM
29 | CNC(=O)c1c(-c2ccc(F)cc2)oc2ccc(-c3cccc(C(=O)NC(C)(C)c4ccccc4)c3)c(NC(C)=O)c12 | 1 to 10 µM | 1 to 10 µM
30 | CNC(=O)c1c(-c2ccc(F)cc2)oc2ccc(-c3cccc(S(C)(=O)=O)c3)cc12 | > 10 µM | 1 to 10 µM
31 | CNC(=O)c1c(-c2ccc(F)cc2)oc2ccc(-c3cc(C(F)(F)F)ccc3OC)cc12 | > 10 µM | > 3.7 µM
32 | CNC(=O)c1c(-c2ccc(F)cc2)oc2ccc(-c3ccc(C(=O)NC4CC4)cc3)cc12 | > 10 µM | > 1.23 µM
33 | CNC(=O)c1c(-c2ccc(F)cc2)oc2ccc(-c3cc(C)c(Br)cc3C)cc12 | > 10 µM | > 3.7 µM
34 | CNC(=O)c1c(-c2ccc(F)cc2)oc2ccc(-c3ccc(C(F)(F)F)c(Cl)c3)cc12 | > 10 µM | > 1.23 µM
35 | CNC(=O)c1c(-c2ccc(F)cc2)oc2ccc(-c3ccc(OC)nc3OC)cc12 | > 10 µM | > 1.23 µM
36 | CNC(=O)c1c(-c2ccc(F)cc2)oc2ccc(-c3ccc(CNS(C)(=O)=O)cc3)cc12 | > 10 µM | > 1.23 µM
37 | CNC(=O)c1c(-c2ccc(F)cc2)oc2ccc(-c3ccc(OC)nc3)cc12 | > 10 µM | > 1.23 µM
38 | CNC(=O)c1c(-c2ccc(F)cc2)oc2ccc(-c3cc(OC)ncc3Cl)cc12 | > 10 µM | > 1.23 µM

Row | SMILES | IC50 [1] | EC50 [2]
39 | CNC(=O)c1c(-c2ccc(F)cc2)oc2ccc(-c3cccc(C(N)=O)c3)cc12 | 1 to 10 µM | > 3.7 µM
40 | CNC(=O)c1c(-c2ccc(F)cc2)oc2ccc(-c3cccc(C(=O)OC)c3)cc12 | > 10 µM | > 3.7 µM
41 | CNC(=O)c1ccc(-c2ccc3oc(-c4ccc(F)cc4)c(C(=O)NC)c3c2)cc1 | > 10 µM | > 3.7 µM
42 | CNC(=O)c1c(-c2ccc(F)cc2)oc2ccc(-c3cccc(S(=O)(=O)NC)c3)cc12 | > 10 µM | > 3.7 µM
43 | CNC(=O)c1c(-c2ccc(F)cc2)oc2ccc(-c3cccc(C(=O)O)c3)cc12 | 1 to 10 µM | > 10 µM
44 | CNC(=O)c1c(-c2ccc(F)cc2)oc2ccc(-c3ccc(CCC(=O)O)cc3)cc12 | 1 to 10 µM | > 10 µM
45 | CNC(=O)Nc1c(-c2ccc(F)cc2)oc2ccc(OC(C)C)cc12 | > 10 µM | > 10 µM
46 | CNC(=O)c1c(-c2ccc(F)cc2)oc2ccc(-c3ccc(Cl)cc3C(=O)O)cc12 | 1 to 10 µM | > 10 µM
47 | CNC(=O)c1c(-c2ccc(F)cc2)oc2ccc(-c3ccc(C(=O)OC(C)(C)C)cc3)cc12 | > 10 µM | > 10 µM
48 | CNC(=O)c1c(-c2ccc(F)cc2)oc2ccc(-c3ccc(C(=O)O)c(F)c3)cc12 | 1 to 10 µM | > 10 µM
49 | CNC(=O)c1c(-c2ccc(F)cc2)oc2ccc(-c3ccccc3/C=C/C(=O)O)cc12 | 1 to 10 µM | > 10 µM
50 | CNC(=O)c1c(-c2ccc(F)cc2)oc2ccc(-c3cccc(C(=O)N4CCN(C)CC4)c3)cc12 | > 10 µM | > 10 µM
51 | CNC(=O)c1c(-c2ccc(F)cc2)oc2ccc(-c3cccc(CO)c3)cc12 | > 10 µM | > 10 µM
52 | CNC(=O)c1c(-c2ccc(F)cc2)oc2ccc(-c3cc(Br)cnc3F)cc12 | > 10 µM | > 10 µM
53 | CNC(=O)c1c(-c2ccc(F)cc2)oc2ccc(-c3cccc(CCC(=O)O)c3)cc12 | 1 to 10 µM | > 10 µM
54 | CNC(=O)c1c(-c2ccc(F)cc2)oc2ccc(-c3ccc(F)cc3Cl)cc12 | > 10 µM | > 10 µM
55 | CCN(CC)C(=O)c1ccc(-c2ccc3oc(-c4ccc(F)cc4)c(C(=O)NC)c3c2)cc1 | 1 to 10 µM | > 10 µM
56 | CNC(=O)c1c(-c2ccc(F)cc2)oc2ccc(-c3ccc(NC(=O)CCC(=O)O)cc3)cc12 | 1 to 10 µM | > 10 µM
